Molecular target: T1, EZH2 (Homo sapiens, UniProt Q15910)
T1 construct: GRITS37108
Assay: EZH2 methyltransferase SPA assay (3H-SAM, Hela nucleosomes)
Format: biochemical
Conditions: 10 nM EZH2, 7 μg/ml Hela nucleosomes, 2-parameter IC50 fit; single-point-in-time values; read-out: IC50
Experimental: • 1. […] Prepare 500 μM SAH quench solution in ddH20 with 5-10 drops of concentrated HCl to dissolve. • 5. Prepare 6 mg/ml RNA binding SPA beads (Perkin Elmer) suspended in 0.2 M Citric Acid, pH 2.2
Part C. […] Dispense 5 μL no enzyme control (assay buffer mix) to column 18 of plates. • 2. Dispense 5 μL of enzyme mix to the remaining wells in the plate. Centrifuge plate to mix and incubate at room temperature for 30 minutes. • 3. Dispense 5 μL of substrate mix to all wells to initiate the reactions. Centrifuge plate to mix and incubate at room temperature for 2 hours. • 4. […] Dispense 10 μL of 6 mg/ml RNA binding SPA beads prepared in 0.2 M citric acid, pH 2.2 using the Evolution instrument. Continuously shake the beads while adding to plates to prevent beads from settling. • 6. Seal the plates with Perkin Elmer top seals and allow the beads to equilibrate in the plate for at least 30 minutes at room temperature. • 7. […] Read plates in Microbeta after at least 5 hours incubation. Plates can be read immediately, but signal increases over time.
Reagent addition can be done manually or with automated liquid handler.
*The final DMSO concentration in this assay is 1%.
*The positive control is in column 6; negative control is in column 18.

T1 sequence (Q15910 whole entry): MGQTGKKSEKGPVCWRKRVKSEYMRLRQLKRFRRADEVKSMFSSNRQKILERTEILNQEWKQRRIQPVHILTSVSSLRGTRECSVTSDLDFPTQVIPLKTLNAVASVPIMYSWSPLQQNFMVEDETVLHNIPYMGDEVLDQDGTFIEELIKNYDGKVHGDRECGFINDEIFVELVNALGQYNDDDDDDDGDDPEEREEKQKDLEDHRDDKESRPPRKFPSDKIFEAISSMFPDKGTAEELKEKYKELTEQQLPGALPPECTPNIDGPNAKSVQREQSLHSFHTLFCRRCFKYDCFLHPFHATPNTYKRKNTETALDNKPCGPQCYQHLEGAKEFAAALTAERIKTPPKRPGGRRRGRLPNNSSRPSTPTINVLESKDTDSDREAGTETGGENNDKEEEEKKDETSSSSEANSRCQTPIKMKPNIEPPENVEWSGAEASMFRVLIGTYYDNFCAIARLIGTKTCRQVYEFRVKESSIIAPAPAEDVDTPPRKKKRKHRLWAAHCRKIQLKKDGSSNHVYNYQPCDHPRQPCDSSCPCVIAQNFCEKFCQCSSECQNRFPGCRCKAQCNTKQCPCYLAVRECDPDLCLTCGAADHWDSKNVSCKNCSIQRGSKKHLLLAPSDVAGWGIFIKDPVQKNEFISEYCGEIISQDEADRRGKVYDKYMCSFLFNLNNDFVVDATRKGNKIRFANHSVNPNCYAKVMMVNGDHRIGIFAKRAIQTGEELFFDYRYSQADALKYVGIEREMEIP
T1 sequence (O75530 whole entry partner): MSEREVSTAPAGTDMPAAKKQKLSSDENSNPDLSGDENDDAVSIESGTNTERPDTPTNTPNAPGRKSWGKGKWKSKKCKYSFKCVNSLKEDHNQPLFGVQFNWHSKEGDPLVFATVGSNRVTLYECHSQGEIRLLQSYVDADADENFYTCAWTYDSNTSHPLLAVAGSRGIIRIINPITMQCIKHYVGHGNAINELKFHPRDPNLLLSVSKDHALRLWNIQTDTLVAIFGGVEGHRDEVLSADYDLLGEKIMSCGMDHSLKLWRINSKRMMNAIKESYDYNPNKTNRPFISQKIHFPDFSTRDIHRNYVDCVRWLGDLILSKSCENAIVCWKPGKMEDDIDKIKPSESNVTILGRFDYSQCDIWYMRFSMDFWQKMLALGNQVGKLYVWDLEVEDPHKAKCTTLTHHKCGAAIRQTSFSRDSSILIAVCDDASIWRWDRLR
T1 sequence (Q15022 whole entry partner): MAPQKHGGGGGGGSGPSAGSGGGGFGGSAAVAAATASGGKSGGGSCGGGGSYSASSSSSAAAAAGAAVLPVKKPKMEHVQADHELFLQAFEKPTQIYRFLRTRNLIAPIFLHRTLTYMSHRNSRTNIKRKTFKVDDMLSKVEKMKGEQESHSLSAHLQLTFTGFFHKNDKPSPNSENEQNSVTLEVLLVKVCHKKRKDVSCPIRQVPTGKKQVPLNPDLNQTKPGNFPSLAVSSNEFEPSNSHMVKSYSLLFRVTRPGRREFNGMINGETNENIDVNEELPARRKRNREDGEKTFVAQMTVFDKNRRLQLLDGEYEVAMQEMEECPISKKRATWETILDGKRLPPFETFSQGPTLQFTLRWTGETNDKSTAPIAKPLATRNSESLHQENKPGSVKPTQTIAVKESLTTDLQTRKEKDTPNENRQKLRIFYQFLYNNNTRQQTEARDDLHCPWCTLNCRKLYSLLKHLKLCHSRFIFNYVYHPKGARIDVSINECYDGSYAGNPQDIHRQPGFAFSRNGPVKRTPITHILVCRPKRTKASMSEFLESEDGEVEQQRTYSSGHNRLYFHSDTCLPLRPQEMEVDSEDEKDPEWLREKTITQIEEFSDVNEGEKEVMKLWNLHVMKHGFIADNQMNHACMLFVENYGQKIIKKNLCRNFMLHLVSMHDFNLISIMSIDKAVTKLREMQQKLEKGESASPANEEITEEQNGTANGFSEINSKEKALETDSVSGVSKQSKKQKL

| Compound | IC50 |
| --- | --- |
| N-[(4,6-Dimethyl-2-oxo-1,2-dihydro-3-pyridinyl)methyl]-1-(1-methylethyl)-6-(2-phenylethyl)-1H-pyrazolo[3,4-b]pyridine-4-carboxamide [Ex 32] | 856 nM |

Same assay, conditions: read-out: IC50

| Compound | IC50 |
| --- | --- |
| Cc1cc(C(=O)NCc2c(C)cc(C)[nH]c2=O)c2cnn(Cc3ccccc3)c2n1 [Ex 100, N-[(4,6-Dimethyl-2-oxo-1,2-dihydro-3-pyridinyl)methyl]-6-methyl-1-(phenylmethyl)-1H-pyrazolo[3,4-b]pyridine-4-carboxamide] | 5750 nM |
| Cc1cc(C)c(CNC(=O)c2cc(C3CC3)nc3c2c(C)nn3C(C)C)c(=O)[nH]1 [Ex 103, 6-Cyclopropyl-N-[(4,6-dimethyl-2-oxo-1,2-dihydro-3-pyridinyl)methyl]-3-methyl-1-(1-methylethyl)-1H-pyrazolo[3,4-b]pyridine-4-carboxamide] | 373 nM |
| Cc1cc(C)c(CNC(=O)c2cc(C3CC3)nc3c2c(C)nn3C2CCC2)c(=O)[nH]1 [Ex 105, 1-Cyclobutyl-6-cyclopropyl-N-[(4,6-dimethyl-2-oxo-1,2-dihydro-3-pyridinyl)methyl]-3-methyl-1H-pyrazolo[3,4-b]pyridine-4-carboxamide] | 315 nM |
| Cc1cc(C)c(CNC(=O)c2cc(C3CC3)nc3c2c(C)nn3C2CCCC2)c(=O)[nH]1 [Ex 106, 1-Cyclopentyl-6-cyclopropyl-N-[(4,6-dimethyl-2-oxo-1,2-dihydro-3-pyridinyl)methyl]-3-methyl-1H-pyrazolo[3,4-b]pyridine-4-carboxamide] | 119 nM |
| Cc1cc(C)c(CNC(=O)c2cc(C3CC3)nc3c2c(C)nn3C(C)(C)C)c(=O)[nH]1 [Ex 107, 6-Cyclopropyl-1-(1,1-dimethylethyl)-N-[(4,6-dimethyl-2-oxo-1,2-dihydro-3-pyridinyl)methyl]-3-methyl-1H-pyrazolo[3,4-b]pyridine-4-carboxamide] | 75 nM |
| Cc1cc(C)c(CNC(=O)c2cc(C3CC3)nc3c2c(C)nn3C(C)C2CC2)c(=O)[nH]1 (stereo not drawn) [Ex 109, 6-Cyclopropyl-1-(1-cyclopropylethyl)-N-[(4,6-dimethyl-2-oxo-1,2-dihydro-3-pyridinyl)methyl]-3-methyl-1H-pyrazolo[3,4-b]pyridine-4-carboxamide] | 207 nM |
| Cc1cc(C)c(CNC(=O)c2cc(C3CC3)nc3c2c(C)nn3C2CCCCC2)c(=O)[nH]1 [Ex 110, 1-Cyclohexyl-6-cyclopropyl-N-[(4,6-dimethyl-2-oxo-1,2-dihydro-3-pyridinyl)methyl]-3-methyl-1H-pyrazolo[3,4-b]pyridine-4-carboxamide] | 231 nM |
| Cc1cc(C)c(CNC(=O)c2cc(C3CC3)nc3c2c(C)nn3C2CCN(C)CC2)c(=O)[nH]1 [Ex 111, 6-Cyclopropyl-N-[(4,6-dimethyl-2-oxo-1,2-dihydro-3-pyridinyl)methyl]-3-methyl-1-(1-methyl-4-piperidinyl)-1H-pyrazolo[3,4-b]pyridine-4-carboxamide] | 367 nM |
| Cc1cc(C)c(CNC(=O)c2cc(C3CC3)nc3c2c(C)nn3C2CCOCC2)c(=O)[nH]1 [Ex 112, 6-Cyclopropyl-N-[(4,6-dimethyl-2-oxo-1,2-dihydro-3-pyridinyl)methyl]-3-methyl-1-(tetrahydro-2H-pyran-4-yl)-1H-pyrazolo[3,4-b]pyridine-4-carboxamide] | 693 nM |
| COc1ccc(-c2cc(C(=O)NCc3c(C)cc(C)[nH]c3=O)c3cnn(C(C)C)c3n2)cc1 [Ex 113, N-[(4,6-Dimethyl-2-oxo-1,2-dihydro-3-pyridinyl)methyl]-1-(1-methylethyl)-6-[4-(methyloxy)phenyl]-1H-pyrazolo[3,4-b]pyridine-4-carboxamide] | 248 nM |
| Cc1cc(C)c(CNC(=O)c2cc(-c3ccncc3)nc3c2cnn3C(C)C)c(=O)[nH]1 [Ex 114, N-[(4,6-Dimethyl-2-oxo-1,2-dihydro-3-pyridinyl)methyl]-1-(1-methylethyl)-6-(4-pyridinyl)-1H-pyrazolo[3,4-b]pyridine-4-carboxamide] | 199 nM |
| Cc1cc(C)c(CNC(=O)c2cc(-c3ccncc3)nc3c2c(C)nn3C(C)C)c(=O)[nH]1 [Ex 117, N-[(4,6-Dimethyl-2-oxo-1,2-dihydro-3-pyridinyl)methyl]-3-methyl-1-(1-methylethyl)-6-(4-pyridinyl)-1H-pyrazolo[3,4-b]pyridine-4-carboxamide] | 190 nM |
| Cc1cc(C)c(CNC(=O)c2cc(C(C)(C)C)nc3c2c(C)nn3C(C)(C)C)c(=O)[nH]1 [Ex 118, 1,6-Bis(1,1-dimethylethyl)-N-[(4,6-dimethyl-2-oxo-1,2-dihydro-3-pyridinyl)methyl]-3-methyl-1H-pyrazolo[3,4-b]pyridine-4-carboxamide] | 273 nM |
| Cc1cc(C)c(CNC(=O)c2cc(-c3ccc(S(C)(=O)=O)cc3)nc3c2cnn3C(C)C)c(=O)[nH]1 [Ex 119, N-[(4,6-Dimethyl-2-oxo-1,2-dihydro-3-pyridinyl)methyl]-1-(1-methylethyl)-6-[4-(methylsulfonyl)phenyl]-1H-pyrazolo[3,4-b]pyridine-4-carboxamide] | 333 nM |
| Cc1cc(C)c(CNC(=O)c2cc(-c3ccc(-c4cn[nH]c4)cc3)nc3c2cnn3C(C)C)c(=O)[nH]1 [Ex 120, N-[(4,6-Dimethyl-2-oxo-1,2-dihydro-3-pyridinyl)methyl]-1-(1-methylethyl)-6-[4-(1H-pyrazol-4-yl)phenyl]-1H-pyrazolo[3,4-b]pyridine-4-carboxamide] | 270 nM |
| COc1ccc(-c2cc(C(=O)NCc3c(C)cc(C)[nH]c3=O)c3c(C)nn(C(C)(C)C)c3n2)cc1 [Ex 121, 1-(1,1-Dimethylethyl)-N-[(4,6-dimethyl-2-oxo-1,2-dihydro-3-pyridinyl)methyl]-3-methyl-6-[4-(methyloxy)phenyl]-1H-pyrazolo[3,4-b]pyridine-4-carboxamide] | 407 nM |
| Cc1cc(C)c(CNC(=O)c2cc(-c3cccnc3)nc3c2c(C)nn3C(C)(C)C)c(=O)[nH]1 [Ex 122, 1-(1,1-Dimethylethyl)-N-[(4,6-dimethyl-2-oxo-1,2-dihydro-3-pyridinyl)methyl]-3-methyl-6-(3-pyridinyl)-1H-pyrazolo[3,4-b]pyridine-4-carboxamide] | 153 nM |
| Cc1cc(C)c(CNC(=O)c2cc(-c3ccccc3)nc3c2c(Br)nn3C(C)C)c(=O)[nH]1 [Ex 123, 3-Bromo-N-[(4,6-dimethyl-2-oxo-1,2-dihydro-3-pyridinyl)methyl]-1-(1-methylethyl)-6-phenyl-1H-pyrazolo[3,4-b]pyridine-4-carboxamide] | 218 nM |
| Cc1cc(C)c(CNC(=O)c2cc(-c3ccccc3[N+](=O)[O-])nc3c2cnn3C(C)C)c(=O)[nH]1 [Ex 124, N-[(4,6-Dimethyl-2-oxo-1,2-dihydro-3-pyridinyl)methyl]-1-(1-methylethyl)-6-(2-nitrophenyl)-1H-pyrazolo[3,4-b]pyridine-4-carboxamide] | 1050 nM |
| CCCc1cc(C(=O)NCc2c(C)cc(C)[nH]c2=O)c2cnn(C(C)C)c2n1 [Ex 125, N-[(4,6-Dimethyl-2-oxo-1,2-dihydro-3-pyridinyl)methyl]-1-(1-methylethyl)-6-propyl-1H-pyrazolo[3,4-b]pyridine-4-carboxamide] | 2160 nM |

Source: patent US8637509B2, “Azaindazoles” (GlaxoSmithKline LLC, priority 2010, dated 2014)
